US20250368633A1, “AZEPINE FUSED RING COMPOUND AS RIPK1 INHIBITOR AND USE THEREOF” (ARTIVILA BIOPHARMA, priority 2022, published 2025)

Assays:
RIPK1 kinase [1] = molecular target: T1, RIPK1 kinase (Homo sapiens, UniProt Q13546); test: In vitro RIPK1 kinase activity IC50 assay (ADP-Glo); type: biochemical; details: ATP 10 μM; MBP substrate 100 μg/mL; 8 concentration points; read-out: IC50 range of compounds for RIPK1 kinase activity
T1 construct: purchased Promega VA7593
T1 sequence (Q13546 1-671): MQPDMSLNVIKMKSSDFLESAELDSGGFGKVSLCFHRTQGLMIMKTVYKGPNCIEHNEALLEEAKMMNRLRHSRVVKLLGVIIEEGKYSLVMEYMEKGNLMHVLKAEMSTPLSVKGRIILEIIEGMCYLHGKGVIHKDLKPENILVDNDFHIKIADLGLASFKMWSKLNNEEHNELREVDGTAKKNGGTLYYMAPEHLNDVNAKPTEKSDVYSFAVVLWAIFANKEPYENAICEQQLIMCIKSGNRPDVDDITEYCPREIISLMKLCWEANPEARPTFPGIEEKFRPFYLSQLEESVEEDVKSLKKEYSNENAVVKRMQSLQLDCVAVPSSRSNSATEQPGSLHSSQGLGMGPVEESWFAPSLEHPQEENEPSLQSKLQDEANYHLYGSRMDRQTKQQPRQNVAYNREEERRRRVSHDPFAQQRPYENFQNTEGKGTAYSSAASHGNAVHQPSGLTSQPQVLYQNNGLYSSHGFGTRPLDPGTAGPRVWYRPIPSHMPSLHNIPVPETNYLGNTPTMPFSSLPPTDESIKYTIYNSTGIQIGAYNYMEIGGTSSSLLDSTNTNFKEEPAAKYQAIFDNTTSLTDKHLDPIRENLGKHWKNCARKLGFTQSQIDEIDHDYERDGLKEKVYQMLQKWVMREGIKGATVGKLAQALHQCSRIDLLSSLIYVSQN
In short: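 Human RIPK1 preincubated 15 min at room temperature with compound (8-point 1:5 dilution series, 1% DMSO in kinase buffer D). Reaction then ran 1 h with 10 μM ATP and 100 μg/mL MBP substrate; ADP measured by ADP-Glo luminescence, IC50 from four-parameter nonlinear fit.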

U937 cells = test: Inhibition rate of compound (1 μM) on necroptosis of U937 cells (TSZ-induced, CellTiter-Glo); type: cell-based; details: TSZ (hTNF-α, SM-164, Z-VAD-FMK) 20 hours
In short: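 U937 cells were pretreated 15 min with compound, then necroptosis was triggered with TSZ (Z-VAD-FMK, hTNF-α, SM-164) for 20 h at 37° C. Viability was read as ATP by CellTiter-Glo luminescence, and inhibition (%) was taken relative to no-TSZ and TSZ-only wells.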

RIPK1 kinase [2] = molecular target: T1, RIPK1 kinase; test: In vitro RIPK1 kinase activity assay (ADP-Glo), inhibition by compounds at 1 μM; type: biochemical; details: compound 1 μM; ATP 10 μM; MBP substrate 100 μg/mL; read-out: RIPK1 kinase activity inhibition rate range
In short: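 Compound and RIPK1 were preincubated 15 min at room temperature, then reacted 1 h with 10 μM ATP and 100 μg/mL MBP substrate in kinase buffer D. ADP formed was measured by ADP-Glo luminescence and converted to percent inhibition of kinase activity.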

SMILES	IC50 (RIPK1 kinase [1]) [nM]	inhibition at 1 µM (RIPK1 kinase [2]) [%]	Inhibition rate range of compounds (1 μM) on U937 cell necroptosis (U937 cells)
CN1C(=O)[C@@H](NC(=O)C(=O)NCCc2ccccc2)COc2ccc(C#Cc3cnn(C)c3)cc21 [Example 22, (S)—N^1-(5-methyl-7-((1-methyl-1H-pyrazol-4-yl)ethynyl)-4-oxo-2,3,4,5-tetrahydrobenzo[b][1,4]oxazepin-3-yl)-N^2-phenethyloxalamide]	< 100	≥ 75	B (B: 50-89%)
CN1C(=O)[C@@H](NC(=O)C(=O)NCCc2ccccc2)COc2ccc(C#Cc3cnc4cccnn34)cc21 [Example 25, (S)—N^1-(7-(imidazo[1,2-b]pyridazin-3-ylethynyl)-5-methyl-4-oxo-2,3,4,5-tetrahydrobenzo[b][1,4]oxazepin-3-yl)-N^2-phenethyloxalamide]	< 100	≥ 75	A (A: ≥90%)
CN1C(=O)[C@@H](NC(=O)C(=O)NCCc2ccccc2)COc2ccc(C#CC3COC3)cc21 [Example 76, (S)—N^1-(5-methyl-7-(oxetan-3-ylethynyl)-4-oxo-2,3,4,5-tetrahydrobenzo[b][1,4]oxazepin-3-yl)-N^2-phenethyloxalamide]	< 100	50 to 74	A (A: ≥90%)
CN1C(=O)[C@@H](NC(=O)C(=O)NCCc2ccccc2)COc2ccc(C#CCC3(O)COC3)cc21 [Example 79, (S)—N^1-(7-(3-(3-hydroxyoxetan-3-yl)prop-1-yn-1-yl)-5-methyl-4-oxo-2,3,4,5-tetrahydrobenzo[b][1,4]oxazepin-3-yl)-N^2-phenethyloxalamide]	< 100	50 to 74	A (A: ≥90%)
CN1C(=O)[C@@H](NC(=O)C(=O)NCCc2ccccc2)COc2ccc(C#CCCN)cc21 [Example 50, (S)—N^1-(7-(4-aminobut-1-yn-1-yl)-5-methyl-4-oxo-2,3,4,5-tetrahydrobenzo[b][1,4]oxazepin-3-yl)-N^2-phenethyloxalamide]	< 100	≥ 75	A (A: ≥90%)
C[C@@H](CNC(=O)C(=O)N[C@H]1COc2ccc(C#CCN3CCOCC3)cc2N(C)C1=O)c1ccccc1 [Example 159, N^1-((S)-5-methyl-7-(3-morpholinoprop-1-yn-1-yl)-4-oxo-2,3,4,5-tetrahydrobenzo[b][1,4]oxazepin-3-yl)-N^2-((R)-2-phenylpropyl)oxalamide]	< 100	≥ 75	A (A: ≥90%)
CN1C(=O)[C@@H](NC(=O)C(=O)NCc2ccccc2)COc2ccc(C#CCCO)cc21 [Example 32, (S)—N^1-benzyl-N^2-(7-(4-hydroxybut-1-yn-1-yl)-5-methyl-4-oxo-2,3,4,5-tetrahydrobenzo[b][1,4]oxazepin-3-yl)oxalamide]	< 100	≥ 75	A (A: ≥90%)
CN1C(=O)[C@H](NC(=O)C(=O)NCCc2ccccc2)COc2ccc(C#CC3(O)COC3)cc21 [Example 77, (R)—N^1-(7-((3-hydroxyoxetan-3-yl)ethynyl)-5-methyl-4-oxo-2,3,4,5-tetrahydrobenzo[b][1,4]oxazepin-3-yl)-N^2-phenethyloxalamide]	< 100	50 to 74	A (A: ≥90%)
CN1C(=O)[C@@H](NC(=O)C(=O)NCCc2ccccc2F)COc2ccc(C#CCCO)cc21 [Example 33, (S)—N^1-(2-fluorophenethyl)-N^2-(7-(4-hydroxybut-1-yn-1-yl)-5-methyl-4-oxo-2,3,4,5-tetrahydrobenzo[b][1,4]oxazepin-3-yl)oxalamide]	< 100	≥ 75	A (A: ≥90%)

Now from value to molecule, other results behind:

IC50 (RIPK1 kinase [1]) [nM]	inhibition at 1 µM (RIPK1 kinase [2]) [%]	SMILES	Inhibition rate range of compounds (1 μM) on U937 cell necroptosis (U937 cells)
< 100	≥ 75	CN1C(=O)[C@@H](NC(=O)C(=O)NCc2ccccc2)COc2ccc(C#CCn3ccnc3)cc21 [Example 104, (S)—N^1-(7-(3-(1H-imidazol-1-yl)prop-1-yn-1-yl)-5-methyl-4-oxo-2,3,4,5-tetrahydrobenzo[b][1,4]oxazepin-3-yl)-N^2-benzyloxalamide]	A (A: ≥90%)
< 100	50 to 74	CN1C(=O)[C@@H](NC(=O)C(=O)NCCc2cccc(F)c2)COc2ccc(C#CCCO)cc21 [Example 34, (S)—N^1-(3-fluorophenethyl)-N^2-(7-(4-hydroxybut-1-yn-1-yl)-5-methyl-4-oxo-2,3,4,5-tetrahydrobenzo[b][1,4]oxazepin-3-yl)oxalamide]	A (A: ≥90%)
< 100	≥ 75	CN1C(=O)[C@H](NC(=O)C(=O)NCCc2cccc(F)c2)COc2ccc(C#CCCO)cc21 [Example 109, (R)—N^1-(3-fluorophenethyl)-N^2-(7-(4-hydroxybut-1-yn-1-yl)-5-methyl-4-oxo-2,3,4,5-tetrahydrobenzo[b][1,4]oxazepin-3-yl)oxalamide]	A (A: ≥90%)
< 100	≥ 75	CN1C(=O)[C@@H](NC(=O)C(=O)NCc2ccc(F)cc2)COc2ccc(C#CCCO)cc21 [Example 40, (S)—N^1-(4-fluorobenzyl)-N^2-(7-(4-hydroxybut-1-yn-1-yl)-5-methyl-4-oxo-2,3,4,5-tetrahydrobenzo[b][1,4]oxazepin-3-yl)oxalamide]	A (A: ≥90%)
< 100	≥ 75	CN1C(=O)[C@@H](NC(=O)C(=O)NCCc2ccccc2)COc2ccc(C#CC3CN(C=O)C3)cc21 [Example 91, (S)—N^1-(7-((1-formylazetidin-3-yl)ethynyl)-5-methyl-4-oxo-2,3,4,5-tetrahydrobenzo[b][1,4]oxazepin-3-yl)-N^2-phenethyloxalamide]	A (A: ≥90%)
< 100	≥ 75	CN1C(=O)[C@@H](NC(=O)C(=O)NCCc2cccc(F)c2)COc2ccc(C#CCN3CCC(=O)CC3)cc21 [Example 118, (S)—N^1-(3-fluorophenethyl)-N^2-(5-methyl-4-oxo-7-(3-(4-oxopiperidin-1-yl)prop-1-yn-1-yl)-2,3,4,5-tetrahydrobenzo[b][1,4]oxazepin-3-yl)oxalamide]	A (A: ≥90%)
< 100	≥ 75	CN1C(=O)[C@@H](NC(=O)C(=O)NCCc2ccccc2)COc2ccc(C#CC3(O)CCOC3)cc21 (stereo partly drawn) [Example 80, N^1-((3S)-7-((3-hydroxytetrahydrofuran-3-yl)ethynyl)-5-methyl-4-oxo-2,3,4,5-tetrahydrobenzo[b][1,4]oxazepin-3-yl)-N^2-phenethyloxalamide]	A (A: ≥90%)
< 100	50 to 74	CN1C(=O)C(NC(=O)C(=O)NCCc2ccccc2)CCc2ccc(C#CC3CCNCC3)cc21 (stereo not drawn) [Example 66, N^1-(1-methyl-2-oxo-8-(piperidin-4-ylethynyl)-2,3,4,5-tetrahydro-1H-benzo[b]azepin-3-yl)-N^2-phenethyloxalamide]	A (A: ≥90%)
< 100	≥ 75	CN1C(=O)[C@@H](NC(=O)C(=O)NCCc2cccc(F)c2)COc2ccc(C#CCN3CCC(O)C3)cc21 (mixture of isomers) [Example 113, N^1-(3-fluorophenethyl)-N^2-((3S)-7-(3-(3-hydroxypyrrolidin-1-yl)prop-1-yn-1-yl)-5-methyl-4-oxo-2,3,4,5-tetrahydrobenzo[b][1,4]oxazepin-3-yl)oxalamide]	A (A: ≥90%)
< 100	≥ 75	CN1CCC(CC#Cc2ccc3c(c2)N(C)C(=O)[C@@H](NC(=O)C(=O)NCCc2ccccc2)CO3)C1=O (mixture of isomers) [Example 82, N^1-((3S)-5-methyl-7-(3-(1-methyl-2-oxopyrrolidin-3-yl)prop-1-yn-1-yl)-4-oxo-2,3,4,5-tetrahydrobenzo[b][1,4]oxazepin-3-yl)-N^2-phenethyloxalamide]	A (A: ≥90%)
